What all share (assay): Antibacterial assay, standard microtitration, MIC
Common to all, as to format: cell-based

In one test the test system is E. coli To1C. The note with it: for MIC: Escherichia coli, TO1C, read-out: Minimum Inhibitory Concentrations, E. coli To1C; for Minimum Inhibitory Concentrations, E. coli To1C: Gram negative. The method, then: (§1) The compounds of the present invention were tested against an assortment of gram negative and gram positive organisms using standard microtitration techniques (Cohen, et al., Antimicrob. Agents Chemother., 1985;28:766; Heifetz, et al. Antimicrob. Agents Chemother., 1974;6:124).

In a further test the test system is E. coli B90. The conditions noted are these: Gram negative; for MIC: Escherichia coli, read-out: Minimum Inhibitory Concentrations, E. coli B90. The method, then: as §1
Another test relates to E. coli MC4100. The conditions noted are these: Gram negative; for MIC: Escherichia coli, read-out: Minimum Inhibitory Concentrations, E. coli MC4100. As to the method:
as §1

In another test the test system is S. pyogenes C203. The note with it: Gram positive; for MIC: Streptococcus pyogenes, read-out: Minimum Inhibitory Concentrations, S. pyogenes C203. As to the method: as §1
In another test the test system is B. subtilis RB1. The note with it: Gram positive; for MIC: Bacillus subtilis, read-out: Minimum Inhibitory Concentrations, B. subtilis RB1. As to the method: as §1
In a further test the test system is S. aureus 29213. The note with it: Gram positive; for MIC: Staphylococcus aureus, read-out: Minimum Inhibitory Concentrations, S. aureus 29213. As to the method: as §1

Converted amounts (≈) assume the structure as drawn. Some results are limits rather than exact numbers.

With `CCOc1cc2c3c(cccc3c1)C(=O)N(O)C2=O` [Example 14, 5-Ethoxy-2-hydroxy-benzo[de]isoquinoline-1,3-dione], the MIC was 0.13 µg/mL (≈ 0.505 µM) with E. coli To1C; 0.25 µg/mL (≈ 0.972 µM) in the test on E. coli B90; 2 µg/mL (≈ 7.77 µM) with E. coli MC4100; over 64 µg/mL in the test on S. pyogenes C203; 1 µg/mL (≈ 3.89 µM) in the test on B. subtilis RB1; 8 µg/mL (≈ 31.1 µM) in the test with S. aureus 29213.

Consider `O=C1c2cccc3c(N4CCCC4)ccc(c23)C(=O)N1O` [Example 18, 2-Hydroxy-6-(pyrrolidin-1-yl)-benzo[de]isoquinoline-1,3-dione], for which the MIC in the test on E. coli To1C is 1 µg/mL (≈ 3.54 µM); with E. coli B90, 4 µg/mL (≈ 14.2 µM); in the test with E. coli MC4100, over 64 µg/mL; with S. pyogenes C203 it was 4 µg/mL (≈ 14.2 µM); in the test on B. subtilis RB1 it was 2 µg/mL (≈ 7.08 µM); in the test on S. aureus 29213 it was 1 µg/mL (≈ 3.54 µM).

For the compound `Cc1cc2c3c(cccc3c1)C(=O)N(O)C2=O` [Example 21, 2-Hydroxy-5-methyl-benzo[de]isoquinoline-1,3-dione], the MIC stood at 1 µg/mL (≈ 4.4 µM) with E. coli To1C; 2 µg/mL (≈ 8.8 µM) in the test with E. coli B90; 8 µg/mL (≈ 35.2 µM) in the test with E. coli MC4100; 64 µg/mL (≈ 282 µM) in the test with S. pyogenes C203; 4 µg/mL (≈ 17.6 µM) in the test on B. subtilis RB1; 16 µg/mL (≈ 70.4 µM) in the test on S. aureus 29213.

In the case of `CC(=O)OCCOc1cc2c3c(cccc3c1)C(=O)N(O)C2=O` [Example 23, 2-Hydroxy-5-(2-acetoxy-ethoxy)-benzo[de]isoquinoline-1,3-dione], the MIC in the test with E. coli To1C was 1 µg/mL (≈ 3.17 µM); in the test with E. coli B90 it was 2 µg/mL (≈ 6.34 µM); in the test on E. coli MC4100 it was 16 µg/mL (≈ 50.7 µM); in the test with S. pyogenes C203, over 64 µg/mL; in the test on B. subtilis RB1, 4 µg/mL (≈ 12.7 µM); with S. aureus 29213, over 64 µg/mL.

Take `COc1cc2c3c(cccc3c1N1CCCCC1)C(=O)N(O)C2=O` [Example 35, 2-Hydroxy-5-methoxy-6-(piperidin-1-yl)-benzo[de]isoquinoline-1,3-dione]: the MIC in the test on E. coli To1C is 64 µg/mL (≈ 196 µM); in the test on E. coli B90, 64 µg/mL (≈ 196 µM); with E. coli MC4100 it was over 64 µg/mL; in the test with S. pyogenes C203, 4 µg/mL (≈ 12.3 µM); in the test on B. subtilis RB1, 2 µg/mL (≈ 6.13 µM); in the test on S. aureus 29213, 1 µg/mL (≈ 3.06 µM).

On to `O=C1c2cccc3c4c(cc(c23)C(=O)N1O)OCOC4` [Example 45, 5-Hydroxy-11H-8,10-dioxa-5-aza-benzo[de]anthracene-4,6-dione], for which the MIC in the test with E. coli To1C is 0.13 µg/mL (≈ 0.479 µM); with E. coli B90, 0.13 µg/mL (≈ 0.479 µM); in the test on E. coli MC4100, 0.5 µg/mL (≈ 1.84 µM); in the test with S. pyogenes C203, 8 µg/mL (≈ 29.5 µM); with B. subtilis RB1, 0.25 µg/mL (≈ 0.922 µM); in the test on S. aureus 29213, 1 µg/mL (≈ 3.69 µM).

In the case of `O=C1c2ccc([N+](=O)[O-])c3c([N+](=O)[O-])ccc(c23)C(=O)N1O` [Example 48, 2-Hydroxy-6,7-dinitro-benzo[de]isoquinoline-1,3-dione], the MIC in the test with E. coli To1C amounted to 4 µg/mL (≈ 13.2 µM); in the test with E. coli B90, 4 µg/mL (≈ 13.2 µM); in the test with E. coli MC4100 it was 16 µg/mL (≈ 52.8 µM); in the test on S. pyogenes C203, 1 µg/mL (≈ 3.3 µM); with B. subtilis RB1, 8 µg/mL (≈ 26.4 µM); with S. aureus 29213, 2 µg/mL (≈ 6.6 µM).

Consider `O=C1c2cccc3c(N4CCCCC4)c(Br)cc(c23)C(=O)N1O` [Example 49, 5-Bromo-2-hydroxy-6-(piperidine-1-yl)-benzo[de]isoquinoline-1,3-dione], for which the MIC in the test on E. coli To1C worked out at 8 µg/mL (≈ 21.3 µM); in the test on E. coli B90, 4 µg/mL (≈ 10.7 µM); with E. coli MC4100, 64 µg/mL (≈ 171 µM); with S. pyogenes C203 it was 64 µg/mL (≈ 171 µM); in the test on B. subtilis RB1 it was 1 µg/mL (≈ 2.67 µM); with S. aureus 29213, 2 µg/mL (≈ 5.33 µM).

Turning to `CN(C)c1c(Br)cc2c3c(cccc13)C(=O)N(O)C2=O` [Example 53, 5-Bromo-6-dimethylamino-2-hydroxy-benzo[de]isoquinoline-1,3-dione], the MIC was 1 µg/mL (≈ 2.98 µM) in the test on E. coli To1C; 2 µg/mL (≈ 5.97 µM) with E. coli B90; 64 µg/mL (≈ 191 µM) in the test with E. coli MC4100; 32 µg/mL (≈ 95.5 µM) in the test on S. pyogenes C203; 2 µg/mL (≈ 5.97 µM) in the test with B. subtilis RB1; 4 µg/mL (≈ 11.9 µM) in the test with S. aureus 29213.

Take `Cl.N[C@H]1CCN(c2c(Br)cc3c4c(cccc24)C(=O)N(O)C3=O)C1` [Example 54, (S)-6-(3-Amino-pyrrolidin-1-yl)-5-bromo-2-hydroxy-1H-benzo[de]isoquinoline-1,3-dione, Hydrochloride]: the MIC in the test on E. coli To1C stood at 0.5 µg/mL; in the test with E. coli B90, 0.5 µg/mL; with E. coli MC4100 it was 2 µg/mL; in the test on S. pyogenes C203 it was 4 µg/mL; in the test with B. subtilis RB1 it was 2 µg/mL; with S. aureus 29213 it was 8 µg/mL.

As for `N#Cc1cc2c3c(cccc3c1N1CCCC1)C(=O)N(O)C2=O` [Example 57, 5-Cyano-2-hydroxy-6-(pyrrolidin-1-yl)-benzo[de]isoquinoline-1,3-dione], the MIC in the test on E. coli To1C was determined as 0.5 µg/mL (≈ 1.63 µM); in the test on E. coli B90 it was 0.5 µg/mL (≈ 1.63 µM); with E. coli MC4100, 32 µg/mL (≈ 104 µM); in the test with S. pyogenes C203, 32 µg/mL (≈ 104 µM); with B. subtilis RB1, 1 µg/mL (≈ 3.25 µM); with S. aureus 29213, 4 µg/mL (≈ 13 µM).

With `CC(=O)Nc1cc2c3c(cccc3c1N1CCCC1)C(=O)N(O)C2=O` [Example 64, 5-Acetamido-2-hydroxy-6-(pyrrolidin-1yl)-benzo[de]isoquinoline-1,3-dione], the MIC in the test with E. coli To1C is 16 µg/mL (≈ 47.1 µM); in the test on E. coli B90 it was 32 µg/mL (≈ 94.3 µM); in the test with E. coli MC4100 it was over 64 µg/mL; in the test with S. pyogenes C203, over 64 µg/mL; with B. subtilis RB1, 64 µg/mL (≈ 189 µM); with S. aureus 29213 it was over 64 µg/mL.

In the case of `CC(C)NCC1CCN(c2c(Cl)cc3c4c(cccc24)C(=O)N(O)C3=O)C1.O=C(O)C(F)(F)F` (centres unmarked) [Example 86], the “Minimum Inhibitory Concentrations, E. coli To1C” value in the test with E. coli To1C is 0.5 µg/mL. Further, in the test on E. coli B90, the “Minimum Inhibitory Concentrations, E. coli B90” value amounted to 0.5 µg/mL. In addition, the “Minimum Inhibitory Concentrations, E. coli MC4100” value in the test with E. coli MC4100 was determined as 8.0 µg/mL. In addition, the “Minimum Inhibitory Concentrations, S. pyogenes C203” value in the test on S. pyogenes C203 is 4.0 µg/mL. Moreover, the “Minimum Inhibitory Concentrations, B. subtilis RB1” value in the test with B. subtilis RB1 amounted to 2.0 µg/mL. The “Minimum Inhibitory Concentrations, S. aureus 29213” value in the test on S. aureus 29213 was 4.0 µg/mL.

Turning to `NC1CCN(c2c(Cl)cc3c4c(cccc24)C(=O)N(O)C3=O)C1.O=C(O)C(F)(F)F` (centres unmarked) [Example 99], in the test on E. coli To1C, the “Minimum Inhibitory Concentrations, E. coli To1C” value stood at 0.5 µg/mL. For the same compound, the “Minimum Inhibitory Concentrations, E. coli B90” value in the test with E. coli B90 was 1.0 µg/mL. For the same compound, the “Minimum Inhibitory Concentrations, E. coli MC4100” value with E. coli MC4100 was found to be 2.0 µg/mL. Moreover, in the test on S. pyogenes C203, the “Minimum Inhibitory Concentrations, S. pyogenes C203” value amounted to 4.0 µg/mL. For the same compound, in the test with B. subtilis RB1, the “Minimum Inhibitory Concentrations, B. subtilis RB1” value turned out to be 1.0 µg/mL. The “Minimum Inhibitory Concentrations, S. aureus 29213” value with S. aureus 29213 is 8.0 µg/mL.

In the case of `Cc1cc2c3c(cccc3c1Br)C(=O)N(O)C2=O` [Example 104, 6-Bromo-5-methyl-2-hydroxy-benzo[de]isoquinoline-1,3-dione], the MIC in the test with E. coli To1C was 0.25 µg/mL (≈ 0.817 µM); in the test on E. coli B90 it was 0.25 µg/mL (≈ 0.817 µM); in the test with E. coli MC4100, over 64 µg/mL; in the test on S. pyogenes C203 it was over 64 µg/mL; in the test with B. subtilis RB1 it was 0.5 µg/mL (≈ 1.63 µM); with S. aureus 29213 it was 4 µg/mL (≈ 13.1 µM).

Turning to `O=C1c2cccc3c([N+](=O)[O-])c(Br)cc(c23)C(=O)N1O` [Example 108, 5-Bromo-2-hydroxy-6-nitro-benzo[de]isoquinoline-1,3-dione], the MIC turned out to be 0.5 µg/mL (≈ 1.48 µM) with E. coli To1C; 0.25 µg/mL (≈ 0.742 µM) in the test on E. coli B90; 8 µg/mL (≈ 23.7 µM) with E. coli MC4100; 16 µg/mL (≈ 47.5 µM) with S. pyogenes C203; 2 µg/mL (≈ 5.93 µM) in the test on B. subtilis RB1; 4 µg/mL (≈ 11.9 µM) in the test on S. aureus 29213.

For the compound `CN(C)CCN1C(=O)c2cccc3cc([N+](=O)[O-])cc(c23)C1=O` [Mitonafide, mitonafide, reference compound], the MIC with E. coli B90 stood at 8 µg/mL (≈ 25.5 µM); with E. coli MC4100 it was 32 µg/mL (≈ 102 µM); in the test on S. pyogenes C203, 4 µg/mL (≈ 12.8 µM); with B. subtilis RB1 it was 16 µg/mL (≈ 51.1 µM); with S. aureus 29213 it was 32 µg/mL (≈ 102 µM).

The record behind these values is patent US6362181B1, “Isoquinolones” (Warner-Lambert Company, priority 1996, dated 2002).
